Laboratory results: the NIST ThermoML archive (doi:10.1021/je800088e)
Several values for one entry are separate records, joined by “and”; a condition that tells them apart may be missing. Equal values may be shown once. ± gives the expanded uncertainty stated by the source.

Conditions: Liquid, Closed cell (Static) method

SMILES	vapor or sublimation pressure (364.52 K)	vapor or sublimation pressure (364.53 K) [kPa]
CC(C)O [propan-2-ol]	143.9 ± 1 kPa	
CCC(C)O (stereo unspecified) [butan-2-ol]	74 ± 0.9 kPa	
CC(C)(C)O [2-methylpropan-2-ol]	143 ± 1 kPa	
CO [methanol]	267.3 ± 1.4 kPa	
C/C=C\C [(Z)-2-butene]	1190.5 ± 5.3 kPa and 1189.6 ± 5.2 kPa	1190.7 ± 5.2
